Data: US20130183696A1, “METHODS OF USE AND KIT FOR MEASUREMENT OF LIPOPOLYSACCHARIDE WITH A TIME RESOLVED FLUORESCENCE BASED ASSAY” (priority 2010, published 2013)

Legend:
[1] = cited from earlier work
[2] = target: T1, recombinant rat A1 adenosine receptor (Rattus norvegicus, UniProt P25099); assay: A1 adenosine receptor TRF Eu-GTP binding assay, standard curve for LPS; format: biochemical; details: CHO cell membranes, Eu-GTP 10 nM, % basal activity; mean of 8-10 independent assays, LPS 10 pg/mL-100 ng/mL
T1 construct: purchased PerkinElmer, Waltham, Mass; host or cells: CHO cells (membranes)
T1 sequence (P25099 1-326): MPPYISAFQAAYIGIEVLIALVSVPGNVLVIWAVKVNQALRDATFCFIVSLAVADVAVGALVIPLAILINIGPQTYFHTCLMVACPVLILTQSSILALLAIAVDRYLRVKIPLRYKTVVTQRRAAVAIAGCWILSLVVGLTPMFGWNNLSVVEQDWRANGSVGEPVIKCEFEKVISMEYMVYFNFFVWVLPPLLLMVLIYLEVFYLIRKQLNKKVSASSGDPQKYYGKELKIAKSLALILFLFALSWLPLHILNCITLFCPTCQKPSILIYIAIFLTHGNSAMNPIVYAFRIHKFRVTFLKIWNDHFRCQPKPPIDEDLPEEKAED
Protocol: To generate a standard LPS/endotoxin standard curve membranes prepared from CHO cells (1 unit/well corresponding to approximately 20 μg of protein per well; PerkinElmer, Waltham, Mass.) expressing the recombinant rat A1 adenosine receptor are preincubated in an Acrowell filter plate (Pall Life Sciences, Ann Arbor, Mich.) in the presence of LPS/endotoxin (USP, Rockville, Md.) (0.01-750 ng/mL). The endotoxin stock solution is prepared by dissolving 10,000 endotoxin units (corresponding to 1000 ng) in 333 μL of endotoxin free water. […] Each assay point is evaluated in triplicate. […] Fluorescence in each well is determined with an Infinite F-200 PRO (Tecan, Grodig, Austria) using fluorescent top read with an excitation wavelength of 320 nm, emission wavelength of 620 nm, and gain setting of 109. Eu-GTP basal activity is calculated as the difference between total Eu-GTP bound and nonspecific Eu-GTP bound. Percent (%) basal is calculated as follows: [(test condition−nonspecific)/(basal activity)]*100. […] The standard curve is analyzed by nonlinear regression (GraphPad Prism, version 5, GraphPad Software, La Jolla, Calif.) using a sigmoidal dose-response curve with variable slope to determine EC50. Each standard curve represents a minimum of three independent experiments and final data are expressed as the mean±SEM. […]

Row | Substance | adverse side effect ([1]; in vivo) | reduction of absolute mortality compared to placebo ([1]; sepsis patients, definitive large clinical trials (Bernard et al., 2001)) [%] | sensitivity of the assay for LPS [2] [pg/mL]
1 | drotrecogin alfa [Xigris, drotrecogin alfa [activated]] | serious adverse side effect of bleeding | 6 | –
2 | lipopolysaccharide [LPS] | – | – | 10
